We go through one compound from paper PMC5476731, “Molecular Basis of N,N-Diethyl-3-Methylbenzamide (DEET) in Repelling the Common Bed Bug, Cimex lectularius” (Frontiers in Physiology, 2017).

Each structure is given as a SMILES string.

Holding throughout (assay): two-electrode voltage clamp, Xenopus oocytes
Format in all cases: cell-based, Cimex lectularius
For orientation: In two-electrode clamp one electrode senses voltage and the other passes current.

One assay deals with T1, OR20/ORCO.
T1 construct: cRNA (pT7Ts vector) co-injected with ORCO into Xenopus laevis oocytes; with Odorant receptor coreceptor
The note with it: agonist; co-expressed ORCO; -80 mV; pH 7.6 Ringer; text rounds to 7.5 × 10^−6.

The subject of the next assay is T2, OR37/ORCO.
T2 construct: cRNA (pT7Ts vector) co-injected with ORCO into Xenopus laevis oocytes; with Odorant receptor coreceptor
As to conditions: agonist; co-expressed ORCO; -80 mV; pH 7.6 Ringer; text b25 prints 6.5 × 10^−6 (discrepant).

The subject of the next assay is T3, OR36/ORCO.
T3 construct: cRNA (pT7Ts vector) co-injected with ORCO into Xenopus laevis oocytes; with Odorant receptor coreceptor
The note with it: agonist; co-expressed ORCO; -80 mV; pH 7.6 Ringer; text rounds to 7.1 × 10^−6.

For the compound `CCN(CC)C(=O)c1cccc(C)c1` [DEET, N,N-Diethyl-3-Methylbenzamide], the EC50 with OR20/ORCO is 7.468 × 10^−6 v/v; in the assay on OR37/ORCO, 6.684 × 10^−6 v/v; in the assay with OR36/ORCO, 7.096 × 10^−6 v/v.
